What was measured:
HeLa cells = experiment: Cell viability assay (MTT), HeLa cells; format: cell-based
Description: Cells in exponential growth phase were seeded in a 96 well plate at a concentration of 50,000 cell/well. The cells were allowed to attach to the wells for 24 h at 37° C., 5% CO2, then the culture medium was removed and 100 μL new culture medium containing 1 at gradient concentrations was placed into each well. After culturing at 37° C., 5% CO2 for desired time, each well was added by 10 μL of 5 mg/mL MTT 43-(4,5-Dimethylthiazol-2-yl)-2,5-diphenyltetrazolium bromide), and the plated cells were incubate at dark for 4 h. 100 μL 10% SDS with 0.01 M HCl was added to each well to stop the reduction reaction and to dissolve the purple. After incubation of the cells at 37° C. for overnight, the viability is measured. Data represent the mean±standard deviation of three independent experiments.
The estimation of the threshold concentration of aggregation (320-340 μM) for 1 allows us to examine the cytotoxicity of 1 in monomer and molecular aggregate forms. We first tested the cytotoxicity of 1 towards HeLa cells, the most widely studied cancer cell line, below and above the threshold concentration.

[1] = Self-assembly: gelation and aggregation ability; format: physicochemical
Description: FIG. 22 depicts the characteristics and cytotoxicity of a structural analog of 1.
Another often overlooked feature of amyloid oligomers is that their cytotoxicity is independent of chirality of the amino acids.

[2] = cited from earlier work

Compound: O=C(Cc1ccc2ccccc2c1)N[C@@H](Cc1ccc(O)cc1)C(=O)N[C@@H](Cc1ccc(O)cc1)C(=O)O [Nap-YY]
- cytotoxicity (MTT, HeLa cells) compared with 1 (HeLa cells): lower cytotoxicity than 1
- gelation ability compared with 1 [1]: poorer gelation ability

Compound: transthyretin
- IC50 (cytotoxicity of aberrant protein aggregates) [2]: 200 µg/mL

— patent US10308682B2, “Inhibition of tumor growth with aggregates of small molecules” (BRANDEIS UNIVERSITY, priority 2013, dated 2019)
